“And” between values parts separate entries of the source, which are not always exact repeats. Identical values can stand only once. “Also recorded” adds a separate entry of the source.
Experiments:
HIV-1 NL4-3 = assay: Drug susceptibility assay in PHA-activated PBMCs (HIV p24 ELISA day 7); assay type: cell-based; conditions: PBMCs, NL4-3, day 7
Protocol: The ARTs tenofovir, raltegravir and indinavir were obtained from the NIH AIDS Research and Reference Reagent Program (Gaithersburg, MD). Drug susceptibility assays were performed in PBMCs as previously. Briefly, donor PBMCs were activated by culture with phytohemagglutinin (PHA) for 3 days. Activated PBMCs were infected with HIV (M.O.I of 0.001) for 2 hours in the absence of IM or ARTs, washed to remove non-adsorbed virus, and plated in culture medium containing IL-2 and various dilutions of IM and ARTs alone and in combination. On day 3, fresh medium with fresh drug was added to the cultures. On day 7, cultures were evaluated for HIV production by measuring HIV p24 levels in the culture supernatants by ELISA (PerkinElmer Life Sciences, Inc., Boston, Massachusetts). Data were normalized to p24 levels in drug untreated controls (100%) and EC50 values determined by fitting the data to sigmoidal dose-response (variable slope) curves using GraphPad Prism 5.0 software.
A potential use of CDK9 inhibitor for the treatment of HIV will probably be in combination with ARTs from other classes. We thus evaluated the antiviral interaction between IM and ARTs from the NRTI, integrase and protease inhibitor classes in PBMCs infectivity assays in vitro. We used the virus strain HIV-1 NL4-3 to ensure a robust viral replication in the assays. Although HIV-1 NL4-3 differs from HIV-1 BaL in usage of coreceptor for cell entry, it is expected to have similar sensitivity to the tested ARTs. […] These enhancements of ART potencies by IM are consistent with targeting of different steps of the HIV cycle by IM and the tested ARTs.

[1] = Pharmacokinetics of IM in NSG mice (single i.p. injection, plasma by HPLC); assay type: in vivo; conditions: for Conc (plasma IM), individual mice: 40 mg/kg
Protocol: Fasting, female NSG mice (n = 16) were injected with 40 mg/kg IM via i.p. Blood samples were obtained pre-dose (30 minutes before compound injection) and at 5, 15, 30, 60, 120, 180, 240 and 300 minutes after injection using a sparse sampling design (n = 2 samples per mouse, n = 4 samples per time point). Separated plasma was further extracted and processed for analysis, and IM concentrations determined using HPLC analysis. In brief, sample processing involved extraction of plasma (30 μL) with 400 μL acetonitrile and 2 μg/mL internal standard ([…]). The sample was briefly vortexed and centrifuged (12 minutes, 6°C), with transfer of 400 μL of supernatant to a clean test tube. The sample was evaporated to dryness under nitrogen, reconstituted in 50 μL of methanol:water (75:25), and 20 μL was injected onto the column. The concentration of primary analyte (IM) and internal standard (IS) d4-estrone were determined using a Shimadzu Nexera X2 liquid chromatography system coupled with a SPD-M30A UV-VIS diode array detector. The liquid chromatography separation was performed on a Prodigy ODS-3V C18 column, 250 × 4.6 mm, 5 μm. The mobile phase consisted of 35% water and 65% Methanol (Optima LC-MS grade) delivered at a flow rate of 0.85 mL/min. Retention times for IM and IS were 13 and 15 minutes, respectively, with detection at 280 nm. The IM peak identity was confirmed using the complete 240–600 nm absorbance spectra. The standard concentration curve was linear over the range of 0.025 μg/mL– 4.0 μg/mL using regression plots of IM to internal standard peak area ratios versus drug concentrations derived with 1/x2 weighting. […] Non-compartmental pharmacokinetic parameters were determined from pooled average data at each time point using Phoenix WinNonlin v6.4 (Certara, St. Louis, MO).
We evaluated the pharmacokinetics of IM in NSG mice following a single i.p. injection of 40 mg/kg, a dose that inhibited plasma HIV RNA levels by 2 log 10 units in our previous study. Data (S1 Table) were plotted on concentration-time curves and pharmacokinetic parameter values determined (Fig 1). […] Thus, IM concentrations above HIV EC50 values are rapidly achieved and maintained for > 3 h following i.p. injection of 40 mg/kg IM.
Fig 1 Pharmacokinetics of IM in mice. NSG mice (n = 16) were i.p. injected with 40 mg/kg IM. Blood samples were obtained pre-dose and at 5, 15, 30, 60, 120, 180, 240 and 300 minutes after injection using a sparse sampling design (n = 2 samples per mouse, n = 4 samples per time point). Separated plasma was further extracted and processed for analysis, and IM concentrations were determined using HPLC analysis.

[2] = in vivo; cited from earlier work
HIV [3] = tested on: HIV; design: method as in PMID 16284457; conditions: lymphocytes; read-out: EC50 for inhibition of HIV in vitro; cited from earlier work
[4] = Toxicity study in BALB/c mice (daily i.p. 14 days; blood counts and chemistry profiles); assay type: in vivo; conditions: daily i.p. doses of up to 20 mg/kg for 14 days
Protocol: IM (Cayman Chemicals, Ann Arbor, MI) was dissolved in 10% Cremophor EL (Sigma, St. Louis, MO). Adult, female BALB/c mice were treated with IM (2.5, 5, and 20 mg/kg; n = 5 per dose) or its vehicle (10% Cremophor EL; n = 5) daily, via intraperitoneal (i.p.) injections, for 14 days. We used mice from a single sex to reduce potential variability of the data, although gender is not expected to have an effect on the toxicity of IM. On day 14, animals were anesthesized with ketamine-xylazine (100-150mg/kg Ketamine + 10-16mg/kg Xylazine) and, after confirming (via toe pinch) that a deep surgical plane of anesthesia had been reached, blood was collected by cardiac puncture. Blood samples were submitted for measurements of blood chemistry profiles and of blood counts.
There is currently limited information on IM toxicity. […] To better evaluate the toxicity of IM we conducted toxicity studies following standard protocols. We used BALB/c mice because, unlike NSG mice, are fully immunocompetent and thus more suitable for assessing hematological toxicities. BALB/c mice were treated with IM (2.5, 5 and 20 mg/kg; n = 5 per dose) or its vehicle (n = 5) daily, via i.p. injections, for 14 days. […] Mice were monitored daily for morbidity and mortality. […] The other 19 mice remained healthy and had no evidence of morbidity. […] Creatinine levels below reference ranges may be due to sample hemolysis. […]

HIV [5] = tested on: HIV; design: method as in PMID 24401082; conditions: cited from earlier work

Structure (SMILES): O=C1Nc2ccccc2/C1=C1/Nc2ccccc2/C1=N\O [IM, Indirubin 3’-monoxime]
- P24 (HIV-1 NL4-3; IM alone (IND 0 nM), IND experiment, untreated control 55.00): 4.00 ng/mL
- P24 (HIV-1 NL4-3; IM alone (RAL 0 nM), RAL experiment, untreated control 24.0): 8.00 ng/mL
- P24 (HIV-1 NL4-3; IM alone (TDF 0 µM), TDF experiment, untreated control 50.0): 10.0 ng/mL
- Conc (plasma IM), individual mice ([1]; 5 min after i.p. 40 mg/kg): 1056 ng/mL and 1492 ng/mL and 1336 ng/mL and 54 ng/mL
- Conc (plasma IM), individual mice ([1]; 15 min after i.p. 40 mg/kg): 3005 ng/mL and 2975 ng/mL and 3996 ng/mL and 2773 ng/mL
- Conc (plasma IM), individual mice ([1]; 30 min after i.p. 40 mg/kg): 4918 ng/mL and 2550 ng/mL and 29 ng/mL and 3217 ng/mL
- Conc (plasma IM), individual mice ([1]; 60 min after i.p. 40 mg/kg): 2983 ng/mL and 2619 ng/mL and 2828 ng/mL and 2005 ng/mL
- Conc (plasma IM), individual mice ([1]; 120 min after i.p. 40 mg/kg): 4276 ng/mL and 1171 ng/mL and 1632 ng/mL and 14 ng/mL
- Conc (plasma IM), individual mice ([1]; 180 min after i.p. 40 mg/kg): 380 ng/mL and 1062 ng/mL and 56 ng/mL and 217 ng/mL
- Conc (plasma IM), individual mice ([1]; 240 min after i.p. 40 mg/kg): 285 ng/mL and 58 ng/mL and 14 ng/mL and 376 ng/mL
- Conc (plasma IM), individual mice ([1]; 300 min after i.p. 40 mg/kg): 44 ng/mL and 79 ng/mL and 83 ng/mL and 35 ng/mL
- AUC ([1]; single i.p. 40 mg/kg, plasma): 370 ± 64 µg·min/mL
- elimination t1/2 ([1]; single i.p. 40 mg/kg, plasma): 42.4 min
- maximum concentration of IM in plasma (Cmax) ([1]; single i.p. 40 mg/kg, plasma): 3190 ± 270 ng/mL
- Cmax ([1]; single i.p. 40 mg/kg, plasma, converted from μg/mL): 11.5 ± 0.97 µM
- penetration in brain [2]: favorable penetration in brain
- EC50 (HIV [3]): 1 µM
- hematologic, renal or liver toxicity [4]: not associated with hematologic, renal or liver toxicity; also recorded: no hematologic, liver or renal toxicity
- inhibition of plasma HIV RNA levels (HIV [5]; 40 mg/kg, previous study): 2 log 10 units
- general toxicity (HIV [5]; NSG mice, daily doses between 2.5 and 40 mg/kg): absence of general toxicity
